Results on 16 molecules are retold here after patent publication US20250170147A1, “NEUROACTIVE STEROIDS FOR TREATMENT OF GASTROINTESTINAL DISEASES OR CONDITIONS” (Sage Therapeutics, Inc., priority 2022, published 2025).

Data set [1] has as its system patients with major depressive disorder. The conditions noted are these: meta-analysis, cited from earlier work; for rates of gastrointestinal adverse reactions compared to placebo: 15 most commonly used antidepressants in MDD; for tolerability on the gastrointestinal tract among antidepressants: patients with MDD.
The conditions of data set [2]: clinical trials; meta-analysis; cited from earlier work.
The subject of data set [3] is adults with MDD. Description: Study NCT04476030: withdrawal symptoms by Physician Withdrawal Checklist (PWC-20). Type of data set: in vivo, human. The procedure: (§1) A randomized, double-blind, parallel-group, active/placebo-controlled study (NCT04476030) in participants with major depressive disorder (MDD) was conducted. The study evaluated the efficacy and safety of zuranolone 50 mg co-initiated with standard-of-care (SOC) antidepressant therapies (ADTs) (zuranolone+ADT) vs placebo co-initiated with SOC ADT (placebo+ADT) in adults with MDD. Patients were randomized 1:1 to once-daily, blinded zuranolone+ADT or placebo+ADT for 14 days then continued open-label SOC ADT for 28 more days.
(§2) The proportion of patients who had suicidal ideation at any post baseline visit from Day 3 through Day 42 ranged from 4.8% to 11.7% in the zuranolone+ADT group and from 6.0% to 12.4% in the placebo+ADT group. No patients who received placebo+ADT experienced suicidal behavior.

Data set [4] concerns adults with MDD. Description: Study NCT04476030: suicidal ideation/behavior by C-SSRS. It counts as in vivo, human. The conditions noted are these: compared to baseline. On the procedure: as §1, §2
Data set [5] deals with adults with MDD. Description: Study NCT04476030: treatment-emergent adverse events (safety set). It counts as in vivo, human. The following applies: for tolerability: zuranolone 50 mg once daily 14 days co-initiated with SOC ADT. The procedure: as §1
An AE could therefore be any unfavorable and unintended sign (including an abnormal laboratory finding), symptom or disease temporally associated with the use of a medicinal (investigational) product whether or not related to the medicinal (investigational) product. In clinical studies, an AE could include an undesirable medical condition occurring at any time, including baseline or washout periods, even if no study treatment had been administered.
A treatment emergent adverse event (TEAE) was defined as an AE with onset after the start of investigational product (IP), or any worsening of a pre-existing medical condition/AE with onset after the start of IP and throughout the study. The term IP included any Sage IP, a comparator, or a placebo administered in a clinical study.
The investigator made the determination of relationship to the IP for each AE (not related, related). The following definitions should have been considered when evaluating the relationship of AEs and SAEs to the IP.

[6] abbreviates: ADT continuation period, of 212.
The mark [7] stands for this setting: double blinded treatment period.
Where [8] appears, read: double blinded treatment period, of 212.
Where [9] appears, read: safety set n=212, listed as zuranolone+ADT.
Where [10] appears, read: zuranolone 50 mg + ADT, safety set n=212, whole study.

Entries after “also recorded” stand apart in the source; their conditions may differ. Marks after values point to notes of the source that are not given here.

Consider `CCOc1ccccc1OC(c1ccccc1)C1CNCCO1` (stereo not shown) [reboxetine], for which the “rates of gastrointestinal adverse reactions compared to placebo” value (from here on “rates … compared to placebo”) in data set [1] is on record as “higher rates”.

Take `CN[C@H]1CC[C@@H](c2ccc(Cl)c(Cl)c2)c2ccccc21` [sertraline]: in data set [1], the “rates … compared to placebo” value was “higher rates” and the “tolerability on the gastrointestinal tract among antidepressants” value was “least tolerated”. Besides, the “incidence of diarrhea compared to other SSRIs and venlafaxine” value in data set [2] is “higher incidence of diarrhea”.

Take `COCCCC/C(=N\OCCN)c1ccc(C(F)(F)F)cc1` [fluvoxamine]: the “rates … compared to placebo” value in data set [1] is on record as “higher rates”.

Take `CC(NC(C)(C)C)C(=O)c1cccc(Cl)c1` (stereo not shown) [bupropion]: the “rates … compared to placebo” value in data set [1] is recorded as “higher rates”.

Regarding `CN(C)CCC[C@@]1(c2ccc(F)cc2)OCc2cc(C#N)ccc21` [escitalopram], in data set [1], the “rates … compared to placebo” value is recorded as “higher rates” and the “tolerability on the gastrointestinal tract among antidepressants” value was “least tolerated”.

In the case of zuranolone [Zuranolone + ADT], the “mean decrease from baseline in PWC-20 total score” value in data set [3] (Day 18) was −0.6. The “mean decrease from baseline in PWC-20 total score” value in data set [3] (Day 21) is given as −0.8. For the same molecule, the “withdrawal symptoms (PWC-20)” value in data set [3] (after discontinuation) is reported as “No increases from baseline; also recorded: No signals for an evidence of withdrawal symptoms”. For the same molecule, the “suicidal ideation/behavior signals vs baseline (C-SSRS)” value in data set [4] is “No increases from baseline; also recorded: No signals for an increased suicidal ideation or suicidal behavior”. In data set [5] (ADT continuation period), the “Sexual Dysfunction TEAE, incidence” value was determined as 0.9%; the “Sleep Disorders TEAE, incidence” value came out at 3.8%; the “TEAEs during the ADT continuation period, incidence” value worked out at 31.6%. Besides, in data set [5] (setting [6]), the “Sexual Dysfunction TEAE, number of patients” value was 2; the “Sleep Disorders TEAE, number of patients” value was 8; the “TEAEs during the ADT continuation period, number of patients” value is 67. Further, in data set [5] (comparison with placebo+ADT), the “incidence of gastrointestinal AEs (e.g., nausea, diarrhea) vs placebo+ADT” value is “lower incidence”. Also, in data set [5] (setting [7]), the “Sexual Dysfunction TEAE, incidence” value came out at 3.8% and the “Sleep Disorders TEAE, incidence” value was found to be 9.9%. In data set [5] (setting [8]), the “Sexual Dysfunction TEAE, number of patients” value came to 8 and the “Sleep Disorders TEAE, number of patients” value was found to be 21. Besides, the “TEAEs during the double-blind treatment period, incidence” value in data set [5] (double-blind treatment period) came out at 68.4%. Also, the “TEAEs during the double-blind treatment period, number of patients” value in data set [5] (double-blind treatment period, of 212) is given as 145. In data set [5] (safety set n=212), the “Decreased Appetite TEAE, incidence” value is “(5.7%)”; the “Decreased Appetite TEAE, number of patients” value is given as 12; the “Diarrhea TEAE, incidence” value is “(6.1%)”; the “Diarrhea TEAE, number of patients” value was determined as 13. In data set [5] (safety set n=212), the “Dizziness TEAE, number of patients” value is recorded as 28; the “Dose reduction due to TEAE, incidence” value is “(9.4%)”; the “Dose reduction due to TEAE, number of patients” value came out at 20; the “Dry Mouth TEAE, incidence” value is “(9.4%)”. Besides, in data set [5] (safety set n=212), the “Dry Mouth TEAE, number of patients” value worked out at 20; the “Fatigue TEAE, incidence” value is “(8.5%)”; the “Fatigue TEAE, number of patients” value is 18; the “Headache TEAE, number of patients” value was 25. Besides, in data set [5] (safety set n=212), the “Insomnia TEAE, incidence” value is recorded as “(9.9%)”; the “Insomnia TEAE, number of patients” value is 21; the “Nausea TEAE, number of patients” value was 19; the “Sedation TEAE, incidence” value was “(5.7%)”. For the same molecule, in data set [5] (safety set n=212), the “Sedation TEAE, number of patients” value is 12; the “Serious AEs, incidence” value is given as “(0.9%)^c”; the “Serious AEs, number of patients” value came to 2; the “Somnolence TEAE, number of patients” value was 39. In data set [5] (safety set n=212), the “Study withdrawal due to TEAE, incidence” value was “(5.2%)”; the “Study withdrawal due to TEAE, number of patients” value is recorded as 11; the “TEAE maximum severity Mild, incidence” value is listed as “(35.8%)”; the “TEAE maximum severity Mild, number of patients” value was found to be 76. Besides, in data set [5] (safety set n=212), the “TEAE maximum severity Moderate, incidence” value is given as “(34.4%)”; the “TEAE maximum severity Moderate, number of patients” value worked out at 73; the “TEAE maximum severity Severe, incidence” value was “(3.8%)”; the “TEAE maximum severity Severe, number of patients” value was 8. Besides, in data set [5] (safety set n=212), the “Treatment discontinuation due to TEAE, incidence” value was “(6.6%)”; the “Treatment discontinuation due to TEAE, number of patients” value turned out to be 14; the “Tremor TEAE, incidence” value is “(5.2%)”; the “Tremor TEAE, number of patients” value was determined as 11. For the same molecule, in data set [5] (setting [9]), the “Dizziness TEAE, incidence” value is recorded as 13.2%; the “Headache TEAE, incidence” value is recorded as 14.7%; the “Nausea TEAE, incidence” value worked out at 9.0%; the “Serious AEs, incidence” value is reported as 0.9%. Besides, in data set [5] (setting [9]), the “Serious AEs, number of patients” value is recorded as “Two” and the “Somnolence TEAE, incidence” value was 18.4%. Further, in data set [5] (whole study), the “Gastrointestinal disorder TEAE, incidence” value was 29.7%; the “Sexual Dysfunction TEAE, incidence” value is 4.7%; the “Sleep Disorders TEAE, incidence” value is 12.7%. Besides, in data set [5] (whole study, of 212), the “Gastrointestinal disorder TEAE, number of patients” value was determined as 63; the “Sexual Dysfunction TEAE, number of patients” value worked out at 10; the “Sleep Disorders TEAE, number of patients” value was determined as 27. Also, in data set [5] (setting [10]), the “Any TEAE, incidence” value was “(74.1%)” and the “Any TEAE, number of patients” value is reported as 157. The “Any TEAE, incidence” value in data set [5] (zuranolone 50 mg + ADT, safety set n=212, whole study, listed as zuranolone+ADT) came out at 74.1%. Also, the tolerability entry in data set [5] is reported as “generally well-tolerated”. Further, the tolerability entry in data set [5] (listed as zuranolone co-initiated with an SOC ADT) was “generally well tolerated”.

As for `CNCCC(Oc1ccc(C(F)(F)F)cc1)c1ccccc1` (stereo not shown) [fluoxetine], the “rates … compared to placebo” value in data set [1] is on record as “higher rates”.

Take `Cc1ccc(Sc2ccccc2N2CCNCC2)c(C)c1` [vortioxetine]: the “rates … compared to placebo” value in data set [1] is recorded as “higher rates”.

For the molecule `COc1ccc(C(CN(C)C)C2(O)CCCCC2)cc1` (stereo not shown) [venlafaxine], in data set [1], the “rates … compared to placebo” value is listed as “higher rates”. In addition, the “rates of nausea and vomiting compared to SSRIs and duloxetine” value in data set [2] is “higher rates of nausea and vomiting”.

Regarding `CN(C)CCCC1(c2ccc(F)cc2)OCc2cc(C#N)ccc21` (stereo not shown) [citalopram], the “rates … compared to placebo” value in data set [1] is recorded as “higher rates”.

As for `CN(C)CC(c1ccc(O)cc1)C1(O)CCCCC1` (stereo not shown) [desvenlafaxine], the “rates … compared to placebo” value in data set [1] is recorded as “higher rates”.

Consider `Fc1ccc([C@@H]2CCNC[C@H]2COc2ccc3c(c2)OCO3)cc1` [paroxetine], for which, in data set [1], the “rates … compared to placebo” value is on record as “higher rates”.

Regarding `CCN(CC)C(=O)[C@@]1(c2ccccc2)C[C@H]1CN` [levomilnacipran], in data set [1], the “rates … compared to placebo” value was “higher rates”.

Regarding `CN1CCN2c3ncccc3Cc3ccccc3C2C1` (stereo not shown) [mirtazapine], the “rates … compared to placebo” value in data set [1] is reported as “higher rates”.

For the molecule `CNCC[C@H](Oc1cccc2ccccc12)c1cccs1` [duloxetine], the “rates … compared to placebo” value in data set [1] is given as “higher rates”.

Turning to `COc1ccc2cccc(CCNC(C)=O)c2c1` [agomelatine], the “rates … compared to placebo” value in data set [1] is “higher rates”.
